16 molecules from US20240189309A1, “TYK2 INHIBITORS AND USES THEREOF” (Sudo Biosciences Limited, priority 2021, published 2024) can be followed below.

Molecules are shown by their SMILES.

Assay type in all cases: cell-based
The target in test [1] is T1, TYK2 Pseudokinase (JH2) (Homo sapiens, UniProt P29597). The experiment in a line: HEK-Blue IFNα/β reporter assay (SEAP) for profiling TYK2 pseudokinase (JH2) inhibition. To be noted: HEK-Blue IFNα/β cells, 1 ng/mL human recombinant IFNα, read-out: IFNα (TYK2 inhibitory activity, IC50). How it is done: (§1) Example B-1: HEK-Blue™ IL-23 and IFNα/β Reporter Assays for Profiling TYK2 Pseudokinase (JH2) Inhibition
(§2) HEK-Blue™ IL-23 and IFNα/β cells with a stably-integrated cytokine receptor and STAT3 or STAT1 express STAT-inducible secreted embryonic alkaline phosphatase (SEAP) reporter gene upon cytokine stimulation. These cells are plated in DMEM (Gibco) containing 10% heat-inactivated FBS (Gibco) and 100 U/mL PenStrep (Gibco) at 37° C. under 5% CO2 conditions for 20-22 hours. The cells are then pretreated with serially diluted test compounds for 60 min prior to stimulation with either 10 ng/mL human recombinant IL-23 (Miltenyl Biotech) or 1 ng/mL human recombinant IFNα (InvivoGen) for 22-24 hours for IL-23 or 16-18 h for IFNα. SEAP induction is measured using the QUANTI Blue™ Solution (InvivoGen) according to the manufacturer's instructions.
On the technique in general: Reporter assays use an easily measured gene product as a stand-in for the process of interest.

Test [2] has as its target T1, TYK2 Pseudokinase (JH2). Kind of test: HEK-Blue IL-23 reporter assay (SEAP) for profiling TYK2 pseudokinase (JH2) inhibition. Further details: HEK-Blue™ IL-23 and IFNα/β cells with a stably-integrated cytokine receptor and STAT3 or STAT1; endogenous in cells; host or cells: HEK-Blue IL-23 and HEK-Blue IFNα/β cells. As to conditions: HEK-Blue IL-23 cells, 10 ng/mL human recombinant IL-23, SEAP reporter; read-out: IL23 (TYK2 inhibitory activity, IC50). How it is done: as §1, §2

In test [3] the test system is HEK-Blue™ IL-2 reporter cells. The experiment in a line: HEK-Blue IL-2 reporter assay (SEAP) for determining selectivity. As to conditions: HEK-Blue IL-2 cells, 4 ng/mL human recombinant IL-2, SEAP reporter. How it is done: (§3) Example B-3: HEK-Blue™ IL-2 and IFNγ Reporter Assays for Determining Selectivity
(§4) HEK-Blue™ IL-2 and IFNγ reporter cells with a stably-integrated cytokine receptor and STAT5 or STAT1 express STAT-inducible secreted embryonic alkaline phosphatase (SEAP) reporter gene upon cytokine stimulation. These cells were plated in DMEM (Gibco) containing 10% heat-inactivated FBS (Gibco) and 100 U/mL PenStrep (Gibco) at 37° C. under 5% CO2 conditions for 20-22 hours. The cells were then pre-treated with serially diluted test compounds for 60 min prior to stimulation with either 4 ng/mL human recombinant IL-2 (Miltenyl Biotech) or 50 ng/mL human recombinant IFNγ (InvivoGen) for 24 hours. SEAP induction was measured using the QUANTI-Blue™ Solution (InvivoGen) according to the manufacturer's instructions.

Test [4] has as its system HEK-Blue™ IFNγ reporter cells. The experiment in a line: HEK-Blue IFNγ reporter assay (SEAP) for determining selectivity. To be noted: 50 ng/mL human recombinant IFNγ, read-out: IFN-γ (SEAP selectivity, IC50). How it is done:
as §3, §4

T1 sequence (P29597 whole entry): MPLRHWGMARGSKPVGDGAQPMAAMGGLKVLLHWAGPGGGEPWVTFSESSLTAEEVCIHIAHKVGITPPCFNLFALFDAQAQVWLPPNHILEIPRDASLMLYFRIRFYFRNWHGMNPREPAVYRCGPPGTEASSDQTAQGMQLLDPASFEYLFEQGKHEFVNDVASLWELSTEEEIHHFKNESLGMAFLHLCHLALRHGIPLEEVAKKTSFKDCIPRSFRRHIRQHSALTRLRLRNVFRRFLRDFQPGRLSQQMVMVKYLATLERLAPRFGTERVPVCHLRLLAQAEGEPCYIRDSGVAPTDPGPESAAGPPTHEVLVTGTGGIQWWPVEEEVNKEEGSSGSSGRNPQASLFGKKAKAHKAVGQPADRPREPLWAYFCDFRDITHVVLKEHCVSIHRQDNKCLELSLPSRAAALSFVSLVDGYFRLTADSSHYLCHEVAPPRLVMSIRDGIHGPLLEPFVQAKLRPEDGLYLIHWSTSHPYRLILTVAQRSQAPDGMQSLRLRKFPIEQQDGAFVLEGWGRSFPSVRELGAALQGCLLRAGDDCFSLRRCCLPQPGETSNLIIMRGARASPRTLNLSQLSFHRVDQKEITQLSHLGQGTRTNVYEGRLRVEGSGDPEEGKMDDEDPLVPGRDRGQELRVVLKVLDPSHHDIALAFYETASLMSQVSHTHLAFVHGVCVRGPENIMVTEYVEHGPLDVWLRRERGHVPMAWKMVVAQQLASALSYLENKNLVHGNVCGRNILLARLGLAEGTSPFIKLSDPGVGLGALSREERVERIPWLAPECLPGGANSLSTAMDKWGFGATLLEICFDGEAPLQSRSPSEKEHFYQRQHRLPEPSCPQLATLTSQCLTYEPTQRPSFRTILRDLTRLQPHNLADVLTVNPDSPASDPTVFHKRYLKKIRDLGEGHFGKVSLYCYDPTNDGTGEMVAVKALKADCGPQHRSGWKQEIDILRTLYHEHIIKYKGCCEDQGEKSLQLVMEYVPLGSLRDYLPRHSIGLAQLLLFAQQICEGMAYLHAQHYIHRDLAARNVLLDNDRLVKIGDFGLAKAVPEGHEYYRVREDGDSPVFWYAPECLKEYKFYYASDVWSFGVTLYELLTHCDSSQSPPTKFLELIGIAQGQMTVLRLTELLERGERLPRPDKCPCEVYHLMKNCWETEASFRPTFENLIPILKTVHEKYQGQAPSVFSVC

Take `CNC(=O)c1nnc(Nc2ccc(F)cn2)cc1Nc1cccc2c1OCc1c-2noc1C` [Compound 1, 6-((5-fluoropyridin-2-yl)amino)-N-methyl-4-((3-methyl-4H-chromeno[4,3-c]isoxazol-6-yl)amino)pyridazine-3-carboxamide]: the IC50 (as a rule, the point on the concentration scale where inhibition reaches its midpoint) in test [1] is more than 1000 nM; in test [2], 300 to 1000 nM.

For `CNC(=O)c1nnc(NC(=O)C2CC2)cc1Nc1cccc2c1OCc1c-2noc1C` [Compound 3, 6-(cyclopropanecarboxamido)-N-methyl-4-((3-methyl-4H-chromeno[4,3-c]isoxazol-6-yl)amino)pyridazine-3-carboxamide], the IC50 in test [3] is more than 1000 nM; in test [4], more than 1000 nM; in test [2] it was 30 to 300 nM.

As to `CNC(=O)c1nnc(Nc2ccc(F)cn2)cc1Nc1cccc2c1OCc1nnnn1-2` [Compound 4, 4-((4H-benzo[b]tetrazolo[1,5-d][1,4]oxazin-6-yl)amino)-6-((5-fluoropyridin-2-yl)amino)-N-methylpyridazine-3-carboxamide], the IC50 was more than 1000 nM in test [1] and 300 to 1000 nM in test [2].

As for `CNC(=O)c1nnc(NC(=O)C2CC2)cc1Nc1cccc2c1OCn1nnnc1-2` [Compound 5, 4-((5H-benzo[e]tetrazolo[1,5-c][1,3]oxazin-7-yl)amino)-6-(cyclopropanecarboxamido)-N-methylpyridazine-3-carboxamide], the IC50 was more than 1000 nM in test [1] and 300 to 1000 nM in test [2].

Turning to `CNC(=O)c1nnc(NC(=O)C2CC2)cc1Nc1cccc2c1OCc1nn(C)c(=O)n1-2` [Compound 6, 6-(cyclopropanecarboxamido)-N-methyl-4-((2-methyl-1-oxo-2,4-dihydro-1H-benzo[b][1,2,4]triazolo[4,3-d][1,4]oxazin-6-yl)amino)pyridazine-3-carboxamide], the IC50 in test [1] was more than 1000 nM; in test [2], 300 to 1000 nM.

For the molecule `CNC(=O)c1nnc(Nc2ccc(F)cn2)cc1Nc1cccc2c1OCc1nn(C)c(=O)n1-2` [Compound 7, 6-((5-fluoropyridin-2-yl)amino)-N-methyl-4-((2-methyl-1-oxo-2,4-dihydro-1H-benzo[b][1,2,4]triazolo[4,3-d][1,4]oxazin-6-yl)amino)pyridazine-3-carboxamide], the IC50 in test [1] and in test [2] was more than 1000 nM each time.

As for `[2H]C([2H])([2H])NC(=O)c1cnc(NC(=O)C2CC2)cc1Nc1cncc2c1N(C)Cc1nn(C)c(=O)n1-2` [Compound 13, 6-(cyclopropanecarboxamido)-4-((2,5-dimethyl-1-oxo-1,2,4,5-tetrahydropyrido[4,3-e][1,2,4]triazolo[4,3-a]pyrazin-6-yl)amino)-N-(methyl-d3)nicotinamide], the IC50 in test [1] and in test [2] was more than 1000 nM in each case.

`[2H]C([2H])([2H])NC(=O)c1nnc(NC(=O)C2COC2)cc1Nc1cccc2c1N(C)Cc1nn(C)c(=O)n1-2` [Compound 19, 4-((2,5-dimethyl-1-oxo-1,2,4,5-tetrahydro-[1,2,4]triazolo[4,3-a]quinoxalin-6-yl)amino)-N-(methyl-d3)-6-(oxetane-3-carboxamido)pyridazine-3-carboxamide]: the IC50 in test [1] was 300 to 1000 nM; in test [2], more than 1000 nM.

With `[2H]C([2H])([2H])NC(=O)c1cnc(NC(=O)C2CC2)cc1Nc1nccc2c1N(C)Cc1nn(C)c(=O)n1-2` [Compound 21, 6-(cyclopropanecarboxamido)-4-((2,5-dimethyl-1-oxo-1,2,4,5-tetrahydropyrido[3,4-e][1,2,4]triazolo[4,3-a]pyrazin-6-yl)amino)-N-(methyl-d3)nicotinamide], the IC50 in test [1] was 30 to 300 nM; in test [3], more than 1000 nM; in test [4] it was 300 to 1000 nM; in test [2], less than 30 nM.

Take `[2H]C([2H])([2H])NC(=O)c1nnc(NC(=O)C2CC2)cc1Nc1cccc2c1N(C)Cc1nc(C)oc1-2` [Compound 22, 6-(cyclopropanecarboxamido)-4-((2,5-dimethyl-4,5-dihydrooxazolo[4,5-c]quinolin-6-yl)amino)-N-(methyl-d3)pyridazine-3-carboxamide]: the IC50 in test [3] is 300 to 1000 nM; in test [2], less than 30 nM.

As to `[2H]C([2H])([2H])NC(=O)c1cnc(NC(=O)C2CC2)cc1Nc1cccc2c1N(C)Cc1nc(C)oc1-2` [Compound 23, 6-(cyclopropanecarboxamido)-4-((2,5-dimethyl-4,5-dihydrooxazolo[4,5-c]quinolin-6-yl)amino)-N-(methyl-d3)nicotinamide], the IC50 was 30 to 300 nM in test [1], more than 1000 nM in test [3], 30 to 300 nM in test [4] and less than 30 nM in test [2].

On to `[2H]C([2H])([2H])NC(=O)c1nnc(NC(=O)C2CC2)cc1Nc1cccc2c1N(C)Cc1sc(C)nc1-2` [Compound 35, 6-(cyclopropanecarboxamido)-4-((2,5-dimethyl-4,5-dihydrothiazolo[5,4-c]quinolin-6-yl)amino)-N-(methyl-d3)pyridazine-3-carboxamide], for which the IC50 is less than 30 nM in test [1], more than 1000 nM in test [3] and less than 30 nM in test [2].

Consider `[2H]C([2H])([2H])NC(=O)c1nnc(NC(=O)C2CC2)cc1Nc1nccc2c1N(C)Cc1sc(C)nc1-2` [Compound 36, 6-(cyclopropanecarboxamido)-4-((2,5-dimethyl-4,5-dihydrothiazolo[5,4-c][1,7]naphthyridin-6-yl)amino)-N-(methyl-d3)pyridazine-3-carboxamide], for which the IC50 in test [1] was less than 30 nM; in test [3], 300 to 1000 nM; in test [4], 30 to 300 nM; in test [2] it was less than 30 nM.

On to `[2H]C([2H])([2H])NC(=O)c1nnc(NC(=O)C2CC2)cc1Nc1cccc2c1N(C)CC1CCC(=O)N21` (centres unmarked) [Compound 37, 6-(cyclopropanecarboxamido)-N-(methyl-d3)-4-((5-methyl-1-oxo-1,2,3,3a,4,5-hexahydropyrrolo[1,2-a]quinoxalin-6-yl)amino)pyridazine-3-carboxamide], for which the IC50 in test [1] was 30 to 300 nM; in test [3], more than 1000 nM; in test [4] it was 300 to 1000 nM; in test [2], less than 30 nM.

On to `[2H]C([2H])([2H])NC(=O)c1nnc(NC(=O)C2CC2)cc1Nc1cccc2c1N(C)C[C@H]1CCC(=O)N21` [Compound 38, (R)-6-(cyclopropanecarboxamido)-N-(methyl-d3)-4-((5-methyl-1-oxo-1,2,3,3a,4,5-hexahydropyrrolo[1,2-a]quinoxalin-6-yl)amino)pyridazine-3-carboxamide], for which the IC50 in test [1] is 30 to 300 nM; in test [3] it was 300 to 1000 nM; in test [4], 30 to 300 nM; in test [2], less than 30 nM.

Consider `[2H]C([2H])([2H])NC(=O)c1nnc(NC(=O)C2CC2)cc1Nc1cccc2c1N(C)C[C@@H]1CCC(=O)N21` [Compound 39, (S)-6-(cyclopropanecarboxamido)-N-(methyl-d3)-4-((5-methyl-1-oxo-1,2,3,3a,4,5-hexahydropyrrolo[1,2-a]quinoxalin-6-yl)amino)pyridazine-3-carboxamide], for which the IC50 in test [1] lay within 300 to 1000 nM; in test [2], 30 to 300 nM.
